Source: ChEMBL document CHEMBL1201862, “PubChem BioAssay data set” (2004)
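The compound was tested at five concentrations on cells cultured in 96-well plates, with a 48-hour exposure period. The concentration for 50% growth inhibition is given as GI50.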 Calls of active or inactive are those of the source. Rule as the data show it: active = GI50 up to about 1.1 µM and inactive = higher.

Tests used:
Test in all cases: growth of human tumour cells (NCI), 48 h
HCC 2998 = system: HCC 2998
A498 = system: A498
RXF 393 = system: RXF 393
SF-539 = system: SF-539
KM12 = system: KM12
OVCAR-4 = system: OVCAR-4
SNB-75 = system: SNB-75
UO-31 = system: UO-31
IGROV-1 = system: IGROV-1
MOLT-4 = system: MOLT-4
HL-60 = system: HL-60
HCT-15 = system: HCT-15
RPMI-8226 = system: RPMI-8226
Malme-3M = system: Malme-3M
NCI-H23 = system: NCI-H23
OVCAR-8 = system: OVCAR-8
SK-MEL-2 = system: SK-MEL-2
UACC-257 = system: UACC-257
KM-20L2 = system: KM-20L2
M14 = system: M14
SF-295 = system: SF-295
CAKI-1 = system: CAKI-1
NCI-H226 = system: NCI-H226
COLO 205 = system: COLO 205
HCT-116 = system: HCT-116
OVCAR-5 = system: OVCAR-5
HT-29 = system: HT-29
CCRF-CEM = system: CCRF-CEM
EKVX = system: EKVX
SF-268 = system: SF-268
K562 = system: K562
SW-620 = system: SW-620
SK-OV-3 = system: SK-OV-3
DLD-1 = system: DLD-1
HOP-92 = system: HOP-92
DMS-114 = system: DMS-114
UACC-62 = system: UACC-62
U-251 = system: U-251
SNB-19 = system: SNB-19
A549 = system: A549
OVCAR-3 = system: OVCAR-3
SN12C = system: SN12C
NCI-H460 = system: NCI-H460
XF498 = system: XF498
NCI-H522 = system: NCI-H522
786-0 = system: 786-0
TK-10 = system: TK-10
SNB-78 = system: SNB-78
DMS-273 = system: DMS-273
SK-MEL-28 = system: SK-MEL-28
LXFL 529 = system: LXFL 529
HOP-62 = system: HOP-62
M19-MEL = system: M19-MEL
ACHN = system: ACHN
LOX IMVI = system: LOX IMVI
SR = system: SR
SK-MEL-5 = system: SK-MEL-5

**Q.** Which GI50 (HCC 2998) does the source give for `N=c1oc2c(O)c(O)ccc2cc1C(N)=O` here?
**A.** > 100 µM (inactive)

**Q.** And the GI50 (A498)?
**A.** > 100 µM (inactive)

**Q.** What about the GI50 (RXF 393) of the same molecule?
**A.** 50.2 µM (inactive)

**Q.** What about the GI50 (SF-539) of the same molecule?
**A.** > 100 µM (inactive)

**Q.** And the GI50 (KM12)?
**A.** > 100 µM (inactive)

**Q.** And the GI50 (OVCAR-4)?
**A.** 17.5 µM (inactive)

**Q.** What about the GI50 (SNB-75) of the same molecule?
**A.** 30.2 µM (inactive)

**Q.** What about the GI50 (UO-31) of the same molecule?
**A.** > 100 µM (inactive)

**Q.** And the GI50 (IGROV-1)?
**A.** > 100 µM (inactive)

**Q.** What about the GI50 (MOLT-4) of the same molecule?
**A.** 34 µM (inactive)

**Q.** And the GI50 (HL-60)?
**A.** > 10 µM (inactive)

**Q.** And the GI50 (HCT-15)?
**A.** > 100 µM

**Q.** And the GI50 (RPMI-8226)?
**A.** 32.1 µM (inactive)

**Q.** What about the GI50 (Malme-3M) of the same molecule?
**A.** 84.3 µM (inactive)

**Q.** What about the GI50 (NCI-H23) of the same molecule?
**A.** > 100 µM (inactive)

**Q.** And the GI50 (OVCAR-8)?
**A.** 24.5 µM (inactive)

**Q.** And the GI50 (SK-MEL-2)?
**A.** 48.2 µM (inactive)

**Q.** And the GI50 (UACC-257)?
**A.** 32.1 µM (inactive)

**Q.** What about the GI50 (KM-20L2) of the same molecule?
**A.** > 100 µM (inactive)

**Q.** And the GI50 (M14)?
**A.** 43 µM (inactive)

**Q.** And the GI50 (SF-295)?
**A.** 33.6 µM (inactive)

**Q.** And the GI50 (CAKI-1)?
**A.** > 100 µM (inactive)

**Q.** And the GI50 (NCI-H226)?
**A.** > 100 µM (inactive)

**Q.** And the GI50 (COLO 205)?
**A.** 41.6 µM (inactive)

**Q.** What about the GI50 (HCT-116) of the same molecule?
**A.** 51.1 µM (inactive)

**Q.** And the GI50 (OVCAR-5)?
**A.** > 100 µM (inactive)

**Q.** And the GI50 (HT-29)?
**A.** > 100 µM (inactive)

**Q.** What about the GI50 (CCRF-CEM) of the same molecule?
**A.** 21.6 µM (inactive)

**Q.** And the GI50 (EKVX)?
**A.** 47.2 µM (inactive)

**Q.** What about the GI50 (SF-268) of the same molecule?
**A.** 96.4 µM (inactive)

**Q.** What about the GI50 (K562) of the same molecule?
**A.** 17.7 µM (inactive)

**Q.** And the GI50 (SW-620)?
**A.** 32.1 µM (inactive)

**Q.** What about the GI50 (SK-OV-3) of the same molecule?
**A.** > 100 µM (inactive)

**Q.** And the GI50 (DLD-1)?
**A.** > 100 µM (inactive)

**Q.** And the GI50 (HOP-92)?
**A.** > 100 µM (inactive)

**Q.** What about the GI50 (DMS-114) of the same molecule?
**A.** 35.4 µM (inactive)

**Q.** What about the GI50 (UACC-62) of the same molecule?
**A.** 35.1 µM (inactive)

**Q.** And the GI50 (U-251)?
**A.** 90.6 µM (inactive)

**Q.** What about the GI50 (SNB-19) of the same molecule?
**A.** > 100 µM (inactive)

**Q.** What about the GI50 (A549) of the same molecule?
**A.** > 100 µM (inactive)

**Q.** And the GI50 (OVCAR-3)?
**A.** 46.8 µM (inactive)

**Q.** What about the GI50 (SN12C) of the same molecule?
**A.** > 100 µM (inactive)

**Q.** And the GI50 (NCI-H460)?
**A.** > 100 µM (inactive)

**Q.** What about the GI50 (XF498) of the same molecule?
**A.** 25.2 µM (inactive)

**Q.** What about the GI50 (NCI-H522) of the same molecule?
**A.** 58.6 µM (inactive)

**Q.** And the GI50 (786-0)?
**A.** 12 µM (inactive)

**Q.** And the GI50 (TK-10)?
**A.** > 100 µM (inactive)

**Q.** And the GI50 (SNB-78)?
**A.** > 100 µM (inactive)

**Q.** And the GI50 (DMS-273)?
**A.** > 100 µM (inactive)

**Q.** And the GI50 (SK-MEL-28)?
**A.** 85.7 µM (inactive)

**Q.** And the GI50 (LXFL 529)?
**A.** 31.6 µM (inactive)

**Q.** And the GI50 (HOP-62)?
**A.** > 100 µM (inactive)

**Q.** And the GI50 (M19-MEL)?
**A.** 21.3 µM (inactive)

**Q.** What about the GI50 (ACHN) of the same molecule?
**A.** > 100 µM (inactive)

**Q.** Which GI50 (HCC 2998) does the source give for `COC(=O)C(NC(=O)c1ccccc1)C(c1ccc(Cl)cc1)P(=O)(OC)OC` (configuration not stated) here?
**A.** > 100 µM (inactive)

**Q.** And the GI50 (A498)?
**A.** > 100 µM (inactive)

**Q.** What about the GI50 (RXF 393) of the same molecule?
**A.** 33.9 µM (inactive)

**Q.** And the GI50 (SF-539)?
**A.** > 100 µM (inactive)

**Q.** What about the GI50 (KM12) of the same molecule?
**A.** > 100 µM (inactive)

**Q.** What about the GI50 (OVCAR-4) of the same molecule?
**A.** > 100 µM (inactive)

**Q.** And the GI50 (SNB-75)?
**A.** > 100 µM (inactive)

**Q.** What about the GI50 (UO-31) of the same molecule?
**A.** > 100 µM (inactive)

**Q.** What about the GI50 (IGROV-1) of the same molecule?
**A.** > 100 µM (inactive)

**Q.** And the GI50 (MOLT-4)?
**A.** > 100 µM (inactive)

**Q.** And the GI50 (HL-60)?
**A.** > 100 µM (inactive)

**Q.** And the GI50 (HCT-15)?
**A.** > 100 µM

**Q.** And the GI50 (RPMI-8226)?
**A.** > 100 µM (inactive)

**Q.** And the GI50 (NCI-H23)?
**A.** 91.4 µM (inactive)

**Q.** What about the GI50 (OVCAR-8) of the same molecule?
**A.** > 100 µM (inactive)

**Q.** And the GI50 (SK-MEL-2)?
**A.** > 100 µM (inactive)

**Q.** And the GI50 (LOX IMVI)?
**A.** > 100 µM (inactive)

**Q.** What about the GI50 (UACC-257) of the same molecule?
**A.** > 100 µM (inactive)

**Q.** And the GI50 (KM-20L2)?
**A.** > 100 µM (inactive)

**Q.** What about the GI50 (M14) of the same molecule?
**A.** > 100 µM (inactive)

**Q.** And the GI50 (SF-295)?
**A.** 97.5 µM (inactive)

**Q.** What about the GI50 (CAKI-1) of the same molecule?
**A.** > 100 µM (inactive)

**Q.** And the GI50 (NCI-H226)?
**A.** > 100 µM (inactive)

**Q.** What about the GI50 (COLO 205) of the same molecule?
**A.** > 100 µM (inactive)

**Q.** What about the GI50 (SR) of the same molecule?
**A.** > 100 µM (inactive)

**Q.** What about the GI50 (HCT-116) of the same molecule?
**A.** > 100 µM (inactive)

**Q.** And the GI50 (OVCAR-5)?
**A.** > 100 µM (inactive)

**Q.** And the GI50 (HT-29)?
**A.** > 100 µM (inactive)

**Q.** What about the GI50 (CCRF-CEM) of the same molecule?
**A.** > 100 µM (inactive)

**Q.** And the GI50 (EKVX)?
**A.** > 100 µM (inactive)

**Q.** And the GI50 (SF-268)?
**A.** > 100 µM (inactive)

**Q.** And the GI50 (K562)?
**A.** > 100 µM (inactive)

**Q.** What about the GI50 (SW-620) of the same molecule?
**A.** > 100 µM (inactive)

**Q.** What about the GI50 (SK-OV-3) of the same molecule?
**A.** > 100 µM (inactive)

**Q.** And the GI50 (DLD-1)?
**A.** > 100 µM (inactive)

**Q.** What about the GI50 (SK-MEL-5) of the same molecule?
**A.** > 100 µM (inactive)

**Q.** And the GI50 (HOP-92)?
**A.** > 100 µM (inactive)

**Q.** And the GI50 (UACC-62)?
**A.** > 100 µM (inactive)

**Q.** And the GI50 (U-251)?
**A.** > 100 µM (inactive)

**Q.** And the GI50 (SNB-19)?
**A.** > 100 µM (inactive)

**Q.** And the GI50 (A549)?
**A.** > 100 µM (inactive)

**Q.** What about the GI50 (SN12C) of the same molecule?
**A.** > 100 µM (inactive)

**Q.** What about the GI50 (NCI-H460) of the same molecule?
**A.** > 100 µM (inactive)

**Q.** What about the GI50 (XF498) of the same molecule?
**A.** > 100 µM (inactive)

**Q.** What about the GI50 (NCI-H522) of the same molecule?
**A.** > 100 µM (inactive)

**Q.** What about the GI50 (TK-10) of the same molecule?
**A.** > 100 µM (inactive)

**Q.** What about the GI50 (SNB-78) of the same molecule?
**A.** > 100 µM (inactive)

**Q.** And the GI50 (DMS-273)?
**A.** > 100 µM (inactive)

**Q.** What about the GI50 (SK-MEL-28) of the same molecule?
**A.** > 100 µM (inactive)

**Q.** What about the GI50 (LXFL 529) of the same molecule?
**A.** > 100 µM (inactive)

**Q.** What about the GI50 (HOP-62) of the same molecule?
**A.** > 100 µM (inactive)

**Q.** What about the GI50 (M19-MEL) of the same molecule?
**A.** > 100 µM (inactive)

**Q.** What about the GI50 (ACHN) of the same molecule?
**A.** > 100 µM (inactive)
